Measurements published in PubChem BioAssay (NCI).
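Tested at 5 concentrations; 48 h exposure; 96-well plates; endpoints linearly interpolated, else capped at highest concentration. TGI is the concentration that stops growth completely.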

Legend:
Assay in all cases: NCI anticancer screen, dose series, 48 h
[1] = system: MOLT-4 leukemia
[2] = system: NCI-H226 lung
[3] = system: SNB-75 CNS
[4] = system: NCI-H460 lung
[5] = system: LOX IMVI melanoma
[6] = system: MDA-MB-435
[7] = system: SK-MEL-2 melanoma
[8] = system: UACC-62 melanoma
[9] = system: MCF7 breast
[10] = system: KM12 colon
[11] = system: OVCAR-5 ovarian
[12] = system: SW-620 colon
[13] = system: SR leukemia
[14] = system: HCT-15 colon
[15] = system: MALME-3M melanoma
[16] = system: 786-0 renal
[17] = system: MDA-MB-231 breast
[18] = system: RXF 393 renal
[19] = system: UACC-257 melanoma
[20] = system: U251 CNS
[21] = system: NCI-H522 lung
[22] = system: OVCAR-3 ovarian
[23] = system: SNB-19 CNS
[24] = system: PC-3 prostate
[25] = system: RPMI-8226 leukemia
[26] = system: DU-145 prostate
[27] = system: A549 NSCLC
[28] = system: BT-549 breast
[29] = system: SF-268 CNS
[30] = system: ACHN renal
[31] = system: SK-MEL-28 melanoma
[32] = system: TK-10 renal
[33] = system: HCT-116 colon
[34] = system: EKVX NSCLC
[35] = system: COLO 205 colon
[36] = system: T-47D breast
[37] = system: HOP-62 NSCLC
[38] = system: UO-31 renal
[39] = system: SN12C renal
[40] = system: SF-295 CNS
[41] = system: HOP-92 NSCLC
[42] = system: HT29 colon
[43] = system: NCI-H23 lung
[44] = system: SK-OV-3 ovarian
[45] = system: SK-MEL-5 melanoma
[46] = system: HCC-2998 colon
[47] = system: M14 melanoma
[48] = system: OVCAR-8 ovarian
[49] = system: OVCAR-4 ovarian
[50] = system: CAKI-1 renal
[51] = system: IGROV1 ovarian
[52] = system: NCI/ADR-RES ovarian
[53] = system: HS 578T breast
[54] = system: A498 renal
[55] = system: SF-539 CNS
[56] = system: CCRF-CEM leukemia
[57] = system: K-562 leukemia
[58] = system: HL-60(TB) leukemia

Compound `Cc1ccc(S(=O)(=O)ON2C(=O)c3cccc4cc([N+](=O)[O-])cc(c34)C2=O)cc1` has a TGI [1] of over 100 µM, a TGI [2] of over 100 µM and a TGI [3] of over 100 µM. For the same compound, the TGI [4] was over 100 µM, the TGI [5] was over 100 µM and the TGI [6] was over 100 µM. The TGI [7] was over 100 µM, the TGI [8] was over 100 µM and the TGI [9] was over 100 µM. The TGI [10] was over 100 µM, the TGI [11] was over 100 µM and the TGI [12] was over 100 µM. It also gave a TGI [13] of over 100 µM, a TGI [14] of over 100 µM and a TGI [15] of over 100 µM. For the same compound, the TGI [16] was over 100 µM, the TGI [17] was over 100 µM and the TGI [18] was over 100 µM. The TGI [19] was over 100 µM, the TGI [20] was over 100 µM and the TGI [21] was over 100 µM. It also gave a TGI [22] of over 100 µM, a TGI [23] of over 100 µM and a TGI [24] of over 100 µM. The TGI [25] was over 100 µM, the TGI [26] was over 100 µM and the TGI [27] was over 100 µM. The TGI [28] was over 100 µM, the TGI [29] was over 100 µM and the TGI [30] was over 100 µM. The TGI [31] was over 100 µM, the TGI [32] was over 100 µM and the TGI [33] was over 100 µM. For the same compound, the TGI [34] was over 100 µM, the TGI [35] was over 100 µM and the TGI [36] was over 100 µM. For the same compound, the TGI [37] was over 100 µM, the TGI [38] was over 100 µM and the TGI [39] was over 100 µM. For the same compound, the TGI [40] was over 100 µM, the TGI [41] was over 100 µM and the TGI [42] was 79.3 µM. It also gave a TGI [43] of over 100 µM, a TGI [44] of over 100 µM and a TGI [45] of over 100 µM. For the same compound, the TGI [46] was 58.9 µM, the TGI [47] was over 100 µM and the TGI [48] was over 100 µM. For the same compound, the TGI [49] was over 100 µM, the TGI [50] was over 100 µM and the TGI [51] was over 100 µM. It also gave a TGI [52] of over 100 µM and a TGI [53] of over 100 µM.

`COc1ccc(C2SCC(=O)N2c2ccc(-n3c(-c4ccccc4)nc4ccccc4c3=O)cc2)cc1` (stereo not drawn) showed a TGI [1] of over 100 µM, a TGI [2] of over 100 µM and a TGI [3] of 79.3 µM. For the same compound, the TGI [54] was over 100 µM, the TGI [4] was over 100 µM and the TGI [5] was over 100 µM. For the same compound, the TGI [6] was over 100 µM, the TGI [7] was over 100 µM and the TGI [8] was over 100 µM. For the same compound, the TGI [9] was over 100 µM, the TGI [10] was over 100 µM and the TGI [11] was over 100 µM. It also gave a TGI [12] of over 100 µM, a TGI [13] of over 100 µM and a TGI [14] of over 100 µM. It also gave a TGI [16] of over 100 µM, a TGI [17] of over 100 µM and a TGI [19] of over 100 µM. It also gave a TGI [20] of over 100 µM, a TGI [21] of over 100 µM and a TGI [22] of over 100 µM. It also gave a TGI [23] of over 100 µM, a TGI [24] of over 100 µM and a TGI [25] of over 100 µM. It also gave a TGI [26] of over 100 µM, a TGI [27] of over 100 µM and a TGI [55] of over 100 µM. It also gave a TGI [28] of over 100 µM, a TGI [29] of over 100 µM and a TGI [30] of over 100 µM. It also gave a TGI [31] of over 100 µM, a TGI [32] of over 100 µM and a TGI [33] of over 100 µM. It also gave a TGI [34] of over 100 µM, a TGI [35] of over 100 µM and a TGI [36] of over 100 µM. It also gave a TGI [37] of over 100 µM, a TGI [38] of over 100 µM and a TGI [39] of over 100 µM. For the same compound, the TGI [40] was over 100 µM, the TGI [41] was over 100 µM and the TGI [42] was over 100 µM. For the same compound, the TGI [56] was over 100 µM, the TGI [43] was over 100 µM and the TGI [57] was over 100 µM. For the same compound, the TGI [44] was over 100 µM, the TGI [45] was over 100 µM and the TGI [46] was over 100 µM. It also gave a TGI [47] of over 100 µM, a TGI [58] of over 100 µM and a TGI [48] of over 100 µM. For the same compound, the TGI [49] was over 100 µM, the TGI [50] was over 100 µM and the TGI [51] was over 100 µM. It also gave a TGI [52] of over 100 µM.
